Measurements published in patent US8937048B2, “Anti-angiogenic compounds” (Covx Technologies Ireland, Limited, priority 2008, dated 2015).
Where a SMILES comes first, the peptide text is derived from it. Bridges are numbered along the chain shown (N, C = ends). [ ]: non-standard residue; d: D form. Nle = CCCC[C@H](N)C(=O)O

Biological target: T1, recombinant human VEGF165 (Homo sapiens, UniProt P15692)
T1 sequence (P15692 27-191 isoform P15692-4): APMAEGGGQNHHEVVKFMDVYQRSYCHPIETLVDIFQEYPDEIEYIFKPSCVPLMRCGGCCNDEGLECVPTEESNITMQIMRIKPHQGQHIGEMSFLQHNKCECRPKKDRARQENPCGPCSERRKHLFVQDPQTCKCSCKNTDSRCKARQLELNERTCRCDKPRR
Experiment: VEGF peptide binding assay (competition ELISA, VEGF165 binding to coated VEGFR2/Fc)
Procedure: High-binding half-well 96-well plates (Costar #3690) were coated with recombinant human VEGFR2/Fc (50 ng/well) in 50 μl PBS, and incubated at 4° C. overnight. After washing the plates three times with 1× washing buffer (KPL Cat#50-65-00) and blocking with Superblock (Scytek #AAA500) at room temperature (RT) for 1 hour, VEGF-peptides of the invention were serially diluted (concentrations: 0.128-10,000 nM) in the presence of 25 ng/ml of recombinant human VEGF165 in […] Superblock, and were then added to the 96-well plates and incubated at RT for 1 hour. Peptides of the invention tested in this fashion were all capped at the amino terminus with a C(O)CH3 group and at the carboxyl terminus with a NH2 group. The plates were then washed three times with washing buffer, and a diluted (1:500) biotinylated anti-human VEGF antibody (R&D systems, Cat# BAF293) was added and incubated at RT for 2 hours. After washing the plates, streptavidin HRP conjugate (1:200 in Superblock) (R&D systems, Cat# DY998) was added to detect the bound anti-VEGF antibody, followed by addition of tetramethylbenzidine (TMB) substrate (Pierce, Cat#34021) for color development. The reaction was stopped with 2 M H2SO4. OD450 was measured using SpectraMax (Molecular Device) with a correction wavelength of 540 nm. The data were analyzed using Prism software. OD450 values were plotted as a function of the concentrations of the VEGF peptides. IC50 values, indicative of the potency of the VEGF peptides to inhibit VEGF-VEGFR2 interaction, were obtained using a sigmoid dose-response curve fit in Prism.

| Compound | IC50 |
| --- | --- |
| CC[C@H](C)[C@@H]1NC(=O)[C@H](CC(=O)O)NC(=O)[C@@H](NC(=O)[C@H](CC(N)=O)NC(=O)[C@@H]2CCCN2C(=O)[C@H](CCC(=O)O)NC(=O)[C@@H](NC(C)=O)C(C)C)CSSC[C@@H](C(=O)N[C@@H](Cc2ccccc2)C(=O)N[C@@H](CCC(=O)O)C(=O)N[C@@H](CCCNC(=N)N)C(=O)N[C@@H](CC(C)C)C(=O)N[C@@H](Cc2ccc(O)cc2)C(=O)NCC(N)=O)NC(=O)[C@H](CCC(=O)O)NC(=O)[C@H](Cc2c[nH]c3ccccc23)NC(=O)[C@H](C(C)C)NC(=O)[C@H](Cc2c[nH]c3ccccc23)NC(=O)[C@H](CCSC)NC(=O)[C@H](C(C)C)NC(=O)[C@H](Cc2c[nH]cn2)NC1=O [Compound 47, VEPNCDIHVMWVWECFERLYG] (Ac-VEPNCDIHVMWVWECFERLYG-NH2; disulfide 5-15 (inferred)) | 43.3 nM |
| CC[C@H](C)[C@@H]1NC(=O)[C@H](CC(=O)O)NC(=O)[C@@H](NC(=O)[C@H](CC(N)=O)NC(=O)[C@@H]2CCCN2C(=O)[C@H](CCC(=O)O)NC(=O)[C@@H](NC(C)=O)C(C)C)CSSC[C@@H](C(=O)N[C@@H](Cc2ccccc2)C(=O)N[C@@H](CCC(=O)O)C(=O)N[C@@H](CCCNC(=N)N)C(=O)N[C@@H](CC(C)C)C(=O)N[C@H](C(=O)N[C@@H](CCCCN)C(N)=O)C(C)C)NC(=O)[C@H](CCC(=O)O)NC(=O)[C@H](Cc2c[nH]c3ccccc23)NC(=O)[C@H](C(C)C)NC(=O)[C@H](Cc2c[nH]c3ccccc23)NC(=O)[C@H](CCSC)NC(=O)[C@H](C(C)C)NC(=O)[C@H](Cc2c[nH]cn2)NC1=O [Compound 48, VEPNCDIHVMWVWECFERLVK] (Ac-VEPNCDIHVMWVWECFERLVK-NH2; disulfide 5-15 (inferred)) | 42.4 nM |
| CC[C@H](C)[C@@H]1NC(=O)[C@H](CC(=O)O)NC(=O)[C@@H](NC(=O)[C@H](CC(N)=O)NC(=O)[C@@H]2CCCN2C(=O)[C@H](CCC(=O)O)NC(=O)[C@@H](NC(C)=O)C(C)C)CSSC[C@@H](C(=O)N[C@@H](Cc2ccccc2)C(=O)N[C@@H](CCC(=O)O)C(=O)N[C@@H](CCCNC(=N)N)C(=O)N[C@@H](CC(C)C)C(=O)N[C@@H](CCSC)C(=O)N[C@@H](CCCNC(=N)N)C(N)=O)NC(=O)[C@H](CCC(=O)O)NC(=O)[C@H](Cc2c[nH]c3ccccc23)NC(=O)[C@H](C(C)C)NC(=O)[C@H](Cc2c[nH]c3ccccc23)NC(=O)[C@H](CCSC)NC(=O)[C@H](C(C)C)NC(=O)[C@H](Cc2c[nH]cn2)NC1=O [Compound 49, VEPNCDIHVMWVWECFERLMR] (Ac-VEPNCDIHVMWVWECFERLMR-NH2; disulfide 5-15 (inferred)) | 34.5 nM |
| CC[C@H](C)[C@H](NC(=O)CNC(=O)[C@H](Cc1ccc(O)cc1)NC(=O)[C@H](CC(C)C)NC(=O)[C@H](CCCNC(=N)N)NC(=O)[C@H](CCC(=O)O)NC(=O)[C@H](Cc1ccccc1)NC(=O)[C@@H]1CSSC[C@H](NC(=O)[C@H](CC(N)=O)NC(=O)[C@@H]2CCCN2C(=O)[C@H](CCC(=O)O)NC(=O)[C@@H](NC(C)=O)C(C)C)C(=O)N[C@@H](CC(=O)O)C(=O)N[C@@H]([C@@H](C)CC)C(=O)N[C@@H](Cc2c[nH]cn2)C(=O)N[C@@H](C(C)C)C(=O)N[C@@H](CCSC)C(=O)N[C@@H](Cc2c[nH]c3ccccc23)C(=O)N[C@@H](C(C)C)C(=O)N[C@@H](Cc2c[nH]c3ccccc23)C(=O)N[C@@H](CCC(=O)O)C(=O)N1)C(=O)N[C@@H](CC(C)C)C(N)=O [Compound 50, VEPNCDIHVMWVWECFERLYGIL] (Ac-VEPNCDIHVMWVWECFERLYGIL-NH2; disulfide 5-15 (inferred)) | 34.4 nM |
| CC[C@H](C)[C@@H]1NC(=O)[C@H](CC(=O)O)NC(=O)[C@@H](NC(=O)[C@H](CC(N)=O)NC(=O)[C@@H]2CCCN2C(=O)[C@H](CCC(=O)O)NC(=O)[C@@H](NC(C)=O)C(C)C)CSSC[C@@H](C(=O)N[C@@H](Cc2ccccc2)C(=O)N[C@@H](CCC(=O)O)C(=O)N[C@@H](CCCNC(=N)N)C(=O)N[C@@H](CC(C)C)C(=O)N[C@@H](Cc2ccc(O)cc2)C(=O)NCC(=O)NCC(N)=O)NC(=O)[C@H](CCC(=O)O)NC(=O)[C@H](Cc2c[nH]c3ccccc23)NC(=O)[C@H](C(C)C)NC(=O)[C@H](Cc2c[nH]c3ccccc23)NC(=O)[C@H](CCSC)NC(=O)[C@H](C(C)C)NC(=O)[C@H](Cc2c[nH]cn2)NC1=O [Compound 52, VEPNCDIHVMWVWECFERLYGG] (Ac-VEPNCDIHVMWVWECFERLYGG-NH2; disulfide 5-15 (inferred)) | 32.3 nM |
| CC[C@H](C)[C@@H]1NC(=O)[C@H](CC(=O)O)NC(=O)[C@@H](NC(=O)[C@H](CC(N)=O)NC(=O)[C@@H]2CCCN2C(=O)[C@H](CCC(=O)O)NC(=O)[C@@H](NC(C)=O)C(C)C)CSSC[C@@H](C(=O)N[C@@H](Cc2ccccc2)C(=O)N[C@@H](CCC(=O)O)C(=O)N[C@@H](CCCNC(=N)N)C(=O)N[C@@H](CC(C)C)C(=O)N[C@@H](Cc2ccccc2)C(=O)N[C@@H](CCCCN)C(=O)N[C@@H](CCC(=O)O)C(=O)N[C@@H](C)C(N)=O)NC(=O)[C@H](CCC(=O)O)NC(=O)[C@H](Cc2c[nH]c3ccccc23)NC(=O)[C@H](C(C)C)NC(=O)[C@H](Cc2c[nH]c3ccccc23)NC(=O)[C@H](CCSC)NC(=O)[C@H](C(C)C)NC(=O)[C@H](Cc2c[nH]cn2)NC1=O [Compound 53, VEPNCDIHVMWVWECFERLFKEA] (Ac-VEPNCDIHVMWVWECFERLFKEA-NH2; disulfide 5-15 (inferred)) | 31.4 nM |
| CCCC[C@H](NC(=O)[C@H](CC(C)C)NC(=O)[C@H](CCCNC(=N)N)NC(=O)[C@H](CCC(=O)O)NC(=O)[C@H](Cc1ccccc1)NC(=O)[C@@H]1CSSC[C@H](NC(=O)[C@H](CC(N)=O)NC(=O)[C@@H]2CCCN2C(=O)[C@H](CCC(=O)O)NC(=O)[C@@H](NC(C)=O)C(C)C)C(=O)N[C@@H](CC(=O)O)C(=O)N[C@@H]([C@@H](C)CC)C(=O)N[C@@H](Cc2c[nH]cn2)C(=O)N[C@@H](C(C)C)C(=O)N[C@@H](CCSC)C(=O)N[C@@H](Cc2c[nH]c3ccccc23)C(=O)N[C@@H](C(C)C)C(=O)N[C@@H](Cc2c[nH]c3ccccc23)C(=O)N[C@@H](CCC(=O)O)C(=O)N1)C(=O)N[C@@H](CCCCN)C(N)=O [Compound 54, V-E-P-N-C-D-I-H-V-M-W-V-W-E-C-F-E-R-L-(Nle)-K] (Ac-VEPNCDIHVMWVWECFERL[Nle]K-NH2; disulfide 5-15 (inferred)) | 28.6 nM |
| CC[C@H](C)[C@@H]1NC(=O)[C@H](CC(=O)O)NC(=O)[C@@H](NC(=O)[C@H](CC(N)=O)NC(=O)[C@@H]2CCCN2C(=O)[C@H](CCC(=O)O)NC(=O)[C@@H](NC(C)=O)C(C)C)CSSC[C@@H](C(=O)N[C@@H](Cc2ccccc2)C(=O)N[C@@H](CCC(=O)O)C(=O)N[C@@H](CCCNC(=N)N)C(=O)N[C@@H](CC(C)C)C(=O)N[C@@H](Cc2ccc(O)cc2)C(=O)NCC(=O)NCC(=O)N[C@@H](Cc2ccccc2)C(N)=O)NC(=O)[C@H](CCC(=O)O)NC(=O)[C@H](Cc2c[nH]c3ccccc23)NC(=O)[C@H](C(C)C)NC(=O)[C@H](Cc2c[nH]c3ccccc23)NC(=O)[C@H](CCSC)NC(=O)[C@H](C(C)C)NC(=O)[C@H](Cc2c[nH]cn2)NC1=O [Compound 56, VEPNCDIHVMWVWECFERLYGGF] (Ac-VEPNCDIHVMWVWECFERLYGGF-NH2; disulfide 5-15 (inferred)) | 26.2 nM |
| CC[C@H](C)[C@H](NC(=O)[C@H](CC(C)C)NC(=O)[C@H](CCCNC(=N)N)NC(=O)[C@H](CCC(=O)O)NC(=O)[C@H](Cc1ccccc1)NC(=O)[C@@H]1CSSC[C@H](NC(=O)[C@H](CC(N)=O)NC(=O)[C@@H]2CCCN2C(=O)[C@H](CCC(=O)O)NC(=O)[C@@H](NC(C)=O)C(C)C)C(=O)N[C@@H](CC(=O)O)C(=O)N[C@@H]([C@@H](C)CC)C(=O)N[C@@H](Cc2c[nH]cn2)C(=O)N[C@@H](C(C)C)C(=O)N[C@@H](CCSC)C(=O)N[C@@H](Cc2c[nH]c3ccccc23)C(=O)N[C@@H](C(C)C)C(=O)N[C@@H](Cc2c[nH]c3ccccc23)C(=O)N[C@@H](CCC(=O)O)C(=O)N1)C(=O)N[C@@H](CCCCN)C(N)=O [Compound 57, VEPNCDIHVMWVWECFERLIK] (Ac-VEPNCDIHVMWVWECFERLIK-NH2; disulfide 5-15 (inferred)) | 25.4 nM |
| CC[C@H](C)[C@@H]1NC(=O)[C@H](CC(=O)O)NC(=O)[C@@H](NC(=O)[C@H](CC(N)=O)NC(=O)[C@@H]2CCCN2C(=O)[C@H](CCC(=O)O)NC(=O)[C@@H](NC(C)=O)C(C)C)CSSC[C@@H](C(=O)N[C@@H](Cc2ccccc2)C(=O)N[C@@H](CCC(=O)O)C(=O)N[C@@H](CCCNC(=N)N)C(=O)N[C@@H](CC(C)C)C(=O)N[C@@H](Cc2ccc(O)cc2)C(=O)N[C@@H](CCCCN)C(N)=O)NC(=O)[C@H](CCC(=O)O)NC(=O)[C@H](Cc2c[nH]c3ccccc23)NC(=O)[C@H](C(C)C)NC(=O)[C@H](Cc2c[nH]c3ccccc23)NC(=O)[C@H](CCSC)NC(=O)[C@H](C(C)C)NC(=O)[C@H](Cc2c[nH]cn2)NC1=O [Compound 58, VEPNCDIHVMWVWECFERLYK] (Ac-VEPNCDIHVMWVWECFERLYK-NH2; disulfide 5-15 (inferred)) | 25.1 nM |
